Test results published in PubChem BioAssay AID2141 (Sanford-Burnham Center for Chemical Genomics, 2009).
Active and inactive are the calls of the source. The rule behind the calls is not given here.

The compounds below were run against E3 ubiquitin-protein ligase SIAH1 (Homo sapiens) (UniProt Q8IUQ4) (assay: inhibitors of Siah-1 ligand interaction – biochemical, TR-FRET, dose response (AID 2141)). Details: TR-FRET biochemical assay, Siah-1 binding.

| Compound | IC50 |
| --- | --- |
| COCCn1nnnc1C(c1cc2ccc(OC)cc2[nH]c1=O)N1CCc2ccccc2C1 (stereo not given) | 11.8 µM |
| COCCOC(=O)c1sc(=S)n(CCOC)c1N | 10.6 µM |
| CCCCn1c(NS(=O)(=O)c2ccccc2)c(S(=O)(=O)c2ccc(C)cc2)c2nc3ccccc3nc21 | 1.6 µM |
| CC1(C)Cc2c(sc(/N=C/N3CCCCCC3)c2C#N)C(C)(C)N1 | > 200 µM (inactive) |

Results, then the compound that gave them:

| IC50 | Compound |
| --- | --- |
| inactive | CCC1=Nc2cc(C(=O)O)ccc2Sc2ccccc21 |
| 4.55 µM | CC(C)(C)c1ccc(C(CC(=O)O)NC(=O)Cc2ccc(F)cc2)cc1 (stereo not given) |
| inactive | Fc1ccc(/C=N/NC(=S)Nc2cccnc2)cc1F |
| 4.37 µM | O=C(/C=C/c1ccco1)OCc1nnc(-c2ccccc2)o1 |
| 4.38 µM | Cc1c(Cc2ccccc2)c(=O)oc2c(C)c(OCC(=O)N[C@@H](Cc3ccccc3)C(=O)O)ccc12 |
| > 200 µM (inactive) | O=S(=O)(Nc1nc2ccccc2nc1Nc1ccc(N2CCOCC2)cc1)c1cc(Cl)ccc1Cl |
